{"source": "patent US10265277B2", "about": "“Composition of Olivetol and method of use to reduce or inhibit the effects of tetrahydrocannabinol in the human body” (Undoo, LLC, priority 2015, dated 2019)", "tested_on": "cannabis high (psychotropic effects of THC)", "experiment": "real-life, non-clinical trials by volunteers: oral Olivetol softgel taken at peak of cannabis high, self-reported effects", "assay_type": "in vivo, human", "conditions": "consumed before or after THC; general statement of the inventors", "protocol": "A number of real-life, non-clinical trials have been performed by volunteers, to test the effects of the consumption of embodiments of the present invention, the conditions and results of which are described as follows. All tests were performed in “real life,” rather than clinical conditions. Various methods of consumption of cannabis were used, such as consumption of edibles, inhalation of cannabis smoke, or inhalation of vapor, depending upon the volunteer's preference. Some subjects reported their pre-consumption mood, pain level, etc., as well as their level of experience with consumption of cannabis. After sufficient exposure to cannabis, each subject indicated when their euphoria or “high” had reached a high level or a peak. Then, the subject took one or more oral doses of an embodiment of the present invention, containing 30 mg of Olivetol combined with edible oil in a “softgel” pill. A timer was started and the subject then reported when they felt an awareness of a decrease or reduction in their euphoria or other cannabis effects, as well as their subjective feelings, mood, pain level or other observations, until they self-reported that their cannabis effects were concluded. […]"}
{"smiles": "CCCCCc1cc(O)cc(O)c1", "note": "[Olivetol, 5-pentylresorcinol]", "values": [{"measurement": "effect of Olivetol consumption on psychotropic effects of THC", "result": "significantly reduce the psychotropic effects of THC ingestion"}]}
